The record followed here is PubChem BioAssay AID1648 (Sanford-Burnham Center for Chemical Genomics, 2009).

Molecules are shown by their SMILES. Active and inactive are the calls of the source. No rule for the calls is given here.

The term Kd denotes the equilibrium constant for the complex coming apart.

The target in the assay is Serine/threonine-protein kinase mTOR (Homo sapiens) (UniProt P42345). The assay can be described thus: mTOR FRB domain ligand binding – biophysical, NMR (AID 1648). To be noted: NMR binding to FRB domain, chemical shift.
Serine/threonine-protein kinase mTOR (Homo sapiens), sequence (P42345 2015-2114): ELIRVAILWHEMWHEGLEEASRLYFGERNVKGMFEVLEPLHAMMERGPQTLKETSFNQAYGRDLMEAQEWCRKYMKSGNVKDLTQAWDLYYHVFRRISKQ

Take `COc1ccc(C2(C)CC(=O)NC2=O)cc1` (stereo not given): the Kd was > 4 mM (inactive).

Turning to `NC(=O)c1ccsc1N`, the Kd is > 4 mM (inactive).

Take `CC(C)c1ccc2c(c1)CCC1C(C)(C(N)=O)CCCC21C` (stereo not given): the Kd is > 4 mM (inactive).

`CNC(C)[C@H](O)c1ccccc1` (stereo not given in full): the Kd is > 4 mM (inactive).

With `O=c1ccn(Cc2ccccc2)c(=O)[nH]1`, the Kd is > 4 mM (inactive).

For the molecule `COc1cc2c(cc1-c1cc3cc4ccoc4cc3oc1=O)OCO2`, the Kd is > 4 mM (inactive).

Turning to `CC(C)(O)CC[C@@H](O)[C@](C)(O)C1CC[C@@]2(O)C3=CC(=O)C4C[C@@H](O)[C@@H](O)C[C@]4(C)C3CC[C@]12C` (stereo not given in full), the Kd was > 4 mM (inactive).

Turning to `OCc1c[nH]c2ccccc12`, the Kd was > 4 mM (inactive).

`Cc1c(N=CN2CCOCC2)c(=O)n(C)c(=O)n1C`: the Kd was > 4 mM (inactive).

On to `CC1=C(C(=O)Nc2ccccc2)SCCO1`, for which the Kd is > 4 mM (inactive).

For `O=C(O)c1ccc(-n2cccc2)cc1`, the Kd is > 4 mM (inactive).

On to `Cc1cc(O)cc(=O)n1CCCC(=O)O`, for which the Kd is > 4 mM (inactive).

Consider `CCc1c(C(=O)N2CCOCC2)csc1C`, for which the Kd was > 4 mM (inactive).

`O=c1c2ccccc2nc2n1CCCCN2`: the Kd was > 4 mM (inactive).

Turning to `O=C1C2CC=C(Cl)CC2C(=O)N1c1ccccc1O` (stereo not given), the Kd was > 4 mM (inactive).

Regarding `O=C(CSc1ccnc(=O)[nH]1)NCc1ccco1`, the Kd is > 4 mM (inactive).

For `Cn1c(CN2CC(c3ccccc3)CC2=O)n[nH]c1=S` (stereo not given), the Kd is > 4 mM (inactive).

As to `CCOC(=O)N1CCCC1c1cccnc1` (stereo not given), the Kd was > 4 mM (inactive).

`CC(=O)O[C@@H]1CC2C(C)(C)C(=O)C3OC3[C@]2(C)C2CC[C@@]3(C)[C@H](c4ccoc4)OC(=O)C4OC43[C@@]21C` (stereo not given in full): the Kd was > 4 mM (inactive).

On to `O=C(O)CS(=O)(=O)c1ccccc1[N+](=O)[O-]`, for which the Kd was > 4 mM (inactive).

Turning to `CCCS(=O)(=O)N1CCN(c2ccccc2F)CC1`, the Kd is > 4 mM (inactive).

As for `CN1CCN(C(=O)c2ccco2)CC1`, the Kd is > 4 mM (inactive).

For `CC1(C)SCC(C(=O)O)N1C=O` (stereo not given), the Kd is > 4 mM (inactive).

`NC(=O)Cn1nnc(-c2ccc(C(F)(F)F)cc2)n1`: the Kd is > 4 mM (inactive).

Take `CC(=O)O[C@H]1CC[C@@]2(C)C(CC[C@]3(C)C2CC=C2C4CC(C)(C)CC[C@]4(C)CC[C@]23C)C1(C)C` (stereo not given in full): the Kd is > 4 mM (inactive).

As to `Cc1nn(-c2ccccc2C(=O)O)c(=O)c2ccccc12`, the Kd is > 4 mM (inactive).

For the molecule `O=C(O)C1Cc2ccccc2N1` (stereo not given), the Kd is > 4 mM (inactive).

As to `c1ccc(CSc2ncccn2)cc1`, the Kd is > 4 mM (inactive).

`CC(=O)N(c1ccccc1)C1C=CS(=O)(=O)C1` (stereo not given): the Kd was > 4 mM (inactive).

Regarding `Nc1nc2ccc(S(N)(=O)=O)cc2s1`, the Kd is > 4 mM (inactive).

As to `CN(C)C(=O)CSc1nc(N)cc(=O)[nH]1`, the Kd is > 4 mM (inactive).

As to `C=CCc1ccc(OC(=O)c2ccccc2)c(OC)c1`, the Kd was > 4 mM (inactive).

Take `Cc1csc(NC(=O)c2cccs2)n1`: the Kd is > 4 mM (inactive).

Take `Cc1nc2cc(Cl)ccc2n1CCO`: the Kd was > 4 mM (inactive).

For the molecule `Cn1nnc2c(Cl)ncnc21`, the Kd was > 4 mM (inactive).

In the case of `O=C(O)CCC(=O)Nc1nnc(C(F)(F)F)s1`, the Kd is > 4 mM (inactive).

Consider `O=C1CSC(=O)N1CNc1ccccc1`, for which the Kd was > 4 mM (inactive).

On to `COc1ccc2nc(N)sc2c1`, for which the Kd is > 4 mM (inactive).

As for `COc1ccccc1NC(=O)C1CCCCC1`, the Kd is > 4 mM (inactive).

Turning to `Cc1noc(-c2ccccc2)c1CO`, the Kd is > 4 mM (inactive).

For `CCOc1nc(C)ccc1-c1noc(-c2ccncc2)n1`, the Kd was > 4 mM (inactive).

In the case of `O=C(Nc1ccc(Cl)cc1)N1CCCC1`, the Kd is > 4 mM (inactive).

In the case of `O=c1[nH]nc(Cc2ccccn2)c2ccccc12`, the Kd was > 4 mM (inactive).

Take `CSc1n[nH]c(NCc2cccs2)n1`: the Kd was > 4 mM (inactive).

Regarding `O=C(CC1NC(=O)NC1=O)Nc1ccccc1` (stereo not given), the Kd was > 4 mM (inactive).

Regarding `c1ccc(NCc2nc(-c3ccccc3)no2)cc1`, the Kd was > 4 mM (inactive).

For the molecule `NC1=NN(c2ccccc2)C(=O)C1`, the Kd was > 4 mM (inactive).

On to `COc1ccc2c(=O)c(CC(=O)O)coc2c1`, for which the Kd was > 4 mM (inactive).

Regarding `CCOC(=O)CNc1ncnc2c1nnn2CC`, the Kd is > 4 mM (inactive).

For `CCC(=O)Nc1ccccc1NC(C)=O`, the Kd is > 4 mM (inactive).

Take `O=C(C1CCNCC1)N1CCCCCC1`: the Kd was > 4 mM (inactive).

`Cn1cccc1C(=O)NS(=O)(=O)c1ccccc1Cl`: the Kd was > 4 mM (inactive).

For the molecule `Cn1c(NCC(=O)O)nc2c1c(=O)[nH]c(=O)n2C`, the Kd is > 4 mM (inactive).

For `COC(=O)NNc1ncnc(N)c1[N+](=O)[O-]`, the Kd is > 4 mM (inactive).

As for `O=C1C=CC(=O)N1c1ccc(N2CCOCC2)cc1`, the Kd is > 4 mM (inactive).

For `OCC1COc2ccccc2C1` (stereo not given), the Kd is > 4 mM (inactive).

Turning to `NCc1ccc(CN2CCOCC2)cc1`, the Kd was > 4 mM (inactive).

As for `Cc1nnc(SCc2cccs2)[nH]c1=O`, the Kd is > 4 mM (inactive).

For the molecule `Cc1ccc(CCNc2ccccc2)c[n+]1[O-]`, the Kd is > 4 mM (inactive).

As to `O=C(NCO)c1ccc([N+](=O)[O-])cc1`, the Kd is > 4 mM (inactive).

For `CC1(C)C2C[C@@H](O)[C@]3(C)C(CC[C@@]4(C)[C@H](c5ccoc5)OC(=O)[C@H]5O[C@]543)[C@@]2(C)[C@@H](O)C[C@H]1O` (stereo not given in full), the Kd was > 4 mM (inactive).

Regarding `Cc1ccc(N2C(=O)C3C4C=CC(O4)C3C2=O)cc1` (stereo not given), the Kd is > 4 mM (inactive).

For `O=C(c1ccccc1)c1ccccc1C(=O)N1CCOCC1`, the Kd is > 4 mM (inactive).

In the case of `O=C1Nc2ccc(S(=O)(=O)NCCO)c3cccc1c23`, the Kd is > 4 mM (inactive).

`C=C[C@@](C)(O)CCC1C(=C)C[C@H](OC(C)=O)C2C(C)(C)CCCC12C` (stereo not given in full): the Kd is > 4 mM (inactive).

Consider `CCc1c(C)n([O-])c2c([n+]1=O)CCC2`, for which the Kd is > 4 mM (inactive).

On to `O=C(/C=C/c1ccccc1)NC1CCS(=O)(=O)C1` (stereo not given), for which the Kd is > 4 mM (inactive).

With `Nc1ccc2c(c1)C(=O)OC2`, the Kd was > 4 mM (inactive).

In the case of `CCc1c(C)[nH]c(=S)c(C(N)=O)c1C`, the Kd is > 4 mM (inactive).

As for `Cc1cc(C(=O)Nc2sc(C)c(C)c2C#N)no1`, the Kd was > 4 mM (inactive).

For the molecule `NC(=O)Cn1cnc(-c2ccc(F)cc2)c1`, the Kd is > 4 mM (inactive).

For `COc1ccc(/C=C2\SC(N)=NC2=O)cc1`, the Kd was > 4 mM (inactive).

On to `CC(=O)c1csc(-c2cc(C)on2)n1`, for which the Kd was > 4 mM (inactive).

On to `c1ccc(Cc2nnc3sc(-c4ccccn4)nn23)cc1`, for which the Kd was > 4 mM (inactive).

With `O=C1NC(=O)C2C3C=CC(O3)C12` (stereo not given), the Kd is > 4 mM (inactive).
